Laboratory results: US20260250318A1, “COMPOSITIONS AND METHODS FOR CROSSING THE BLOOD BRAIN BARRIER” (VOYAGER THERAPEUTICS, INC., priority 2022, published 2026)

Columns and labels:
brain = test: Matured TTM-001 and TTM-002 variants, NGS enrichment in mouse brain; format: in vivo, mice; settings: NGS fold-enrichment, relative to AAV9 control
[1] = system: brains, heart, liver, muscle, and DRG of the NHPs; test: Maturation of TTM-001 and TTM-002 capsids, NGS enrichment in NHP tissues; format: in vivo; settings: relative to AAV9 control
In short: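 Variants carry mutations within and flanking the loop IV peptide insert: positions 450–466 were triplet-randomized, while positions 449–466 received low-frequency point mutations. The combined pool went into two NHPs, and each peptide was scored by NGS enrichment ratio against AAV9.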

[2] = NGS fold-enrichment of RNA, NHP brain
[3] = NGS fold-enrichment, NHP liver DNA
[4] = NGS fold-enrichment, NHP liver RNA
[5] = NGS fold-enrichment, NHP muscle
[6] = NGS fold-enrichment, DRG of NHPs
[7] = NGS fold-enrichment, RNA, brain of NHPs
[8] = NGS fold-enrichment, heart of NHPs
[9] = NGS fold-enrichment, liver DNA of NHPs
[10] = NGS fold-enrichment, liver RNA of NHPs
[11] = NGS fold-enrichment, muscle of NHPs

Row | Sequence | Fold Enrichment relative to AAV9, Brain (Mouse) (brain; mouse brain) [fold] | Fold Enrichment relative to AAV9, Brain (NHP) [1, 2] [fold] | Fold Enrichment relative to AAV9, DRG (NHP) ([1]; NGS fold-enrichment, NHP DRG) [fold] | Fold Enrichment relative to AAV9, Heart (NHP) ([1]; NGS fold-enrichment, NHP heart) [fold] | Fold Enrichment relative to AAV9, Liver DNA (NHP) [1, 3] [fold] | Fold Enrichment relative to AAV9, Liver RNA (NHP) [1, 4] [fold] | Fold Enrichment relative to AAV9, Muscle (NHP) [1, 5] [fold] | Fold Enrichment relative to AAV9, Brain (Mouse) (brain; brain of mice) [fold] | Fold Enrichment relative to AAV9, DRG (NHP) [1, 6] [fold] | Fold Enrichment relative to AAV9, Brain (NHP) [1, 7] [fold] | Fold Enrichment relative to AAV9, Heart (NHP) [1, 8] [fold] | Fold Enrichment relative to AAV9, Liver DNA (NHP) [1, 9] [fold] | Fold Enrichment relative to AAV9, Liver RNA (NHP) [1, 10] [fold] | Fold Enrichment relative to AAV9, Muscle (NHP) [1, 11] [fold]
1 | KTCNGHDSPHKSGRNQQT | 12.496 | 94.616 | 0.000 | 0.025 | 0.128 | 0.000 | 0.000 | – | – | – | – | – | – | –
2 | KTCNKSGSPHSKAQNQQT | 119.496 | 83.992 | 0.000 | 0.000 | 0.000 | 0.283 | 0.165 | 119.496 | 0.000 | 83.992 | 0.000 | 0.000 | 0.283 | 0.165
3 | KTDAGHDSPHKSGQNQQT | 18.107 | 88.924 | 0.000 | 0.013 | 0.070 | 1.076 | 0.000 | – | – | – | – | – | – | –
4 | KTDKGSGSPHSKAQNQQT | 47.888 | 94.572 | 0.000 | 0.037 | 0.367 | 0.951 | 0.000 | – | – | – | – | – | – | –
5 | KTDKMSGSPHSKAQNQQT | – | – | – | – | – | – | – | 88.234 | 0.000 | 68.167 | 0.000 | 0.205 | 0.017 | 0.000
6 | KTDKNSGSPHSKAQNQQT | – | – | – | – | – | – | – | 62.932 | 0.000 | 70.964 | 0.000 | 0.123 | 0.070 | 0.000
7 | KTDKSSGSPHSKAQNQQT | 141.351 | 79.470 | 0.055 | 0.012 | 0.367 | 1.437 | 0.000 | 141.351 | 0.055 | 79.470 | 0.012 | 0.367 | 1.437 | 0.000
8 | KTDKTSGSPHSKAQNQQT | 169.515 | 81.430 | 0.000 | 0.000 | 0.291 | 1.362 | 0.000 | 169.515 | 0.000 | 81.430 | 0.000 | 0.291 | 1.362 | 0.000
9 | KTDKVSGSPHSKAQNQQT | – | – | – | – | – | – | – | 146.657 | 0.000 | 60.935 | 0.015 | 0.128 | 0.765 | 0.000
10 | KTDLKSGSPHSKAQNQQT | – | – | – | – | – | – | – | 62.687 | 0.000 | 63.152 | 0.000 | 0.377 | 0.285 | 0.012
